# “And” between values parts separate entries of the source, which are not always exact repeats. Identical values can stand only once. Like-named read-outs stand apart in the source and are kept apart here.
# What was measured:
# Assay type in all cases: cell-based
# [1] = test system: S. aureus; experiment: Equivalent doses of melittin fraction and whole honeybee venom with and without kanamycin (growth curves); details: doses of what is present: KANA = 2.5, MEL = 1.6, HBV = 2 (ug/ml)
# [2] = test system: kanamycin resistant S. aureus; experiment: Checkerboard titration assay for synergy of honeybee venom with antibiotics (OD660 growth curves)
# [3] = test system: Staphylococcus aureus; details: Venom 4 ug/ml; for optical density, AVERAGE: AVERAGE line; for optical density: single replicates
# [4] = test system: Pseudomonas aeruginosa; details: Venom 40 ug/ml; for optical density, AVERAGE: AVERAGE line; for optical density: single replicates
# [5] = Relative activity of analogues with respect to native melittin
# Experimental: Also some of then analogues mentioned above were tested to determine their relative activities with respect to native melittin. The relative activity is calculated as follows: [formula]
# [6] = test system: E. coli G1108E; experiment: Checkerboard titration synergy assay of melittin analogues with polymyxin B; details: 5 ug/ml peptide with 6 units/ml polymyxin B; delay time until mid-log phase (FIG. 26)
# [7] = 0 hours after innoculation, doses of what is present: Rifampicin .001 ug/ml
# [8] = 0 hours after innoculation, doses of what is present: Rifampicin .01 ug/ml
# [9] = 2 hours after innoculation, doses of what is present: Rifampicin .001 ug/ml
# [10] = 2 hours after innoculation, doses of what is present: Rifampicin .01 ug/ml
# [11] = 4 hours after innoculation, doses of what is present: Rifampicin .001 ug/ml
# [12] = 4 hours after innoculation, doses of what is present: Rifampicin .01 ug/ml
# [13] = 6 hours after innoculation, doses of what is present: Rifampicin .001 ug/ml
# [14] = 6 hours after innoculation, doses of what is present: Rifampicin .01 ug/ml
# [15] = 8 hours after innoculation, doses of what is present: Rifampicin .001 ug/ml
# [16] = 8 hours after innoculation, doses of what is present: Rifampicin .01 ug/ml
# [17] = 12 hours after innoculation, doses of what is present: Rifampicin .001 ug/ml
# [18] = 12 hours after innoculation, doses of what is present: Rifampicin .01 ug/ml
# [19] = 0 hours after innoculation, doses of what is present: Rifampicin 10 ug/ml
# [20] = 0 hours after innoculation, doses of what is present: Rifampicin 20 ug/ml
# [21] = 2 hours after innoculation, doses of what is present: Rifampicin 10 ug/ml
# [22] = 2 hours after innoculation, doses of what is present: Rifampicin 20 ug/ml
# [23] = 4 hours after innoculation, doses of what is present: Rifampicin 10 ug/ml
# [24] = 4 hours after innoculation, doses of what is present: Rifampicin 20 ug/ml
# [25] = 6 hours after innoculation, doses of what is present: Rifampicin 10 ug/ml
# [26] = 6 hours after innoculation, doses of what is present: Rifampicin 20 ug/ml
# [27] = 8 hours after innoculation, doses of what is present: Rifampicin 10 ug/ml
# [28] = 8 hours after innoculation, doses of what is present: Rifampicin 20 ug/ml
# [29] = 12 hours after innoculation, doses of what is present: Rifampicin 10 ug/ml
# [30] = 12 hours after innoculation, doses of what is present: Rifampicin 20 ug/ml
compound,measurement,setting,value
NC[C@H]1O[C@H](O[C@H]2[C@H](O)[C@@H](O[C@H]3O[C@H](CO)[C@@H](O)[C@H](N)[C@H]3O)[C@H](N)C[C@@H]2N)[C@H](O)[C@@H](O)[C@@H]1O [Kanamycin],MEAN A660,[1]; T0,0.021
same,MEAN A660,[1]; T2,0.080
same,MEAN A660,[1]; T4,0.692
same,MEAN A660,[1]; T6,1.114
same,MEAN A660,[1]; T8,1.217
same,MEAN A660,[1]; T12,1.265
same,MEAN A660,[1]; T24,1.330
same,MEAN A660,"[2]; KANA = 5, HBV = 0, T0",0.016
same,MEAN A660,"[2]; KANA = 5, HBV = 0, T2",0.047
same,MEAN A660,"[2]; KANA = 5, HBV = 0, T4",0.204
same,MEAN A660,"[2]; KANA = 5, HBV = 0, T6",0.282
same,MEAN A660,"[2]; KANA = 5, HBV = 0, T8",0.351
same,MEAN A660,"[2]; KANA = 5, HBV = 0, T12",0.751
same,MEAN A660,"[2]; KANA = 5, HBV = 0, T24",1.152
same,MEAN A660,"[2]; KANA = 10, HBV = 0, T0",0.016
same,MEAN A660,"[2]; KANA = 10, HBV = 0, T2",0.047
same,MEAN A660,"[2]; KANA = 10, HBV = 0, T4",0.135
same,MEAN A660,"[2]; KANA = 10, HBV = 0, T6",0.172
same,MEAN A660,"[2]; KANA = 10, HBV = 0, T8",0.200
same,MEAN A660,"[2]; KANA = 10, HBV = 0, T12",0.397
same,MEAN A660,"[2]; KANA = 10, HBV = 0, T24",1.164
same,MEAN A660,"[2]; KANA = 20, HBV = 0, T0",0.016
same,MEAN A660,"[2]; KANA = 20, HBV = 0, T2",0.047
same,MEAN A660,"[2]; KANA = 20, HBV = 0, T4",0.123
same,MEAN A660,"[2]; KANA = 20, HBV = 0, T6",0.145
same,MEAN A660,"[2]; KANA = 20, HBV = 0, T8",0.166
same,MEAN A660,"[2]; KANA = 20, HBV = 0, T12",0.220
same,MEAN A660,"[2]; KANA = 20, HBV = 0, T24",0.975
same,MEAN A660,"[2]; KANA = 40, HBV = 0, T0",0.016
same,MEAN A660,"[2]; KANA = 40, HBV = 0, T2",0.047
same,MEAN A660,"[2]; KANA = 40, HBV = 0, T4",0.116
same,MEAN A660,"[2]; KANA = 40, HBV = 0, T6",0.146
same,MEAN A660,"[2]; KANA = 40, HBV = 0, T8",0.161
same,MEAN A660,"[2]; KANA = 40, HBV = 0, T12",0.184
same,MEAN A660,"[2]; KANA = 40, HBV = 0, T24",0.697
CO[C@H]1/C=C/O[C@@]2(C)Oc3c(C)c(O)c4c(O)c(c(/C=N/N5CCN(C)CC5)c(O)c4c3C2=O)NC(=O)/C(C)=C\C=C\[C@H](C)[C@H](O)[C@@H](C)[C@@H](O)[C@@H](C)[C@H](OC(C)=O)[C@@H]1C [Rifampicin],"optical density, AVERAGE",[3]; [7],.046
same,optical density,[3]; [7],.046
same,"optical density, AVERAGE",[3]; [8],.046
same,optical density,[3]; [8],.046
same,"optical density, AVERAGE",[3]; [9],.072
same,optical density,[3]; [9],.081 (2×) and .072
same,"optical density, AVERAGE",[3]; [10],.056
same,optical density,[3]; [10],.056 and .054 and .058
same,"optical density, AVERAGE",[3]; [11],.807
same,optical density,[3]; [11],.855 and .765 and .800
same,"optical density, AVERAGE",[3]; [12],.107
same,optical density,[3]; [12],.140 and .068 and .112
same,"optical density, AVERAGE",[3]; [13],1.17
same,optical density,[3]; [13],1.18 and 1.16 and 1.17
same,"optical density, AVERAGE",[3]; [14],.277
same,optical density,[3]; [14],.372 and .156 and .304
same,"optical density, AVERAGE",[3]; [15],1.26
same,optical density,[3]; [15],1.27 and 1.26 (2×)
same,"optical density, AVERAGE",[3]; [16],.898
same,optical density,[3]; [16],1.07 and .625 and 1.00
same,"optical density, AVERAGE",[3]; [17],1.34
same,optical density,[3]; [17],1.34
same,"optical density, AVERAGE",[3]; [18],1.32
same,optical density,[3]; [18],1.32 and 1.34 and 1.30
same,"optical density, AVERAGE",[4]; [19],.033
same,optical density,[4]; [19],.033
same,"optical density, AVERAGE",[4]; [20],.033
same,optical density,[4]; [20],.033
same,"optical density, AVERAGE",[4]; [21],.080
same,optical density,[4]; [21],.074 and .084 and .082
same,"optical density, AVERAGE",[4]; [22],.057
same,optical density,[4]; [22],.053 and .056 and .063
same,"optical density, AVERAGE",[4]; [23],.647
same,optical density,[4]; [23],.630 and .672 and .640
same,"optical density, AVERAGE",[4]; [24],.351
same,optical density,[4]; [24],.375 and .326 and .380
same,"optical density, AVERAGE",[4]; [25],.837
same,optical density,[4]; [25],.830 (2×) and .850
same,"optical density, AVERAGE",[4]; [26],.688
same,optical density,[4]; [26],.660 and .645 and .700
same,"optical density, AVERAGE",[4]; [27],.882
same,optical density,[4]; [27],.885 and .895 and .865
same,"optical density, AVERAGE",[4]; [28],.737
same,optical density,[4]; [28],.730 and .720 and .760
same,"optical density, AVERAGE",[4]; [29],.841
same,optical density,[4]; [29],.842 and .850 and .832
same,"optical density, AVERAGE",[4]; [30],.735
same,optical density,[4]; [30],.730 (2×) and .745
Melittin (1-20) - Arg-Arg-Arg-Arg-Gln-Gln-NH2 [Analogue #5],Relative Activity,[5],300%
same,"relative in vitro activity, place in ascending order",[6],8
Melittin (1-20) - Gly-Gly-Gly-Gly-Gln-Gln-NH2 [Analogue #7],Relative Activity,[5],20%
same,"relative in vitro activity, place in ascending order",[6],1
Melittin (1-20) - Lys-Arg-Lys-Arg-Gly-Gly-NH2 [Analogue #4],"relative in vitro activity, place in ascending order",[6],7
Melittin (1-20) - NH2 [Analogue #1],Relative Activity,[5],20%
NPS-Melittin: o-nitrophenyl sulfenyl group attached to the number 19 tryptophan residue of natural melittin,"relative in vitro activity, place in ascending order",[6],3
"Synthetic Melittin: Synthetic melittin purchased from Peninsula Laboratories, Belmont, Calif.","relative in vitro activity, place in ascending order",[6],5

# Source: US20010021697A1, “METHODS AND COMPOSITIONS FOR THE TREATMENT OF MAMMALIAN INFECTIONS EMPLOYING MEDICAMENTS COMPRISING HYMENOPTERA VENOM, PROTEINAGEOUS OR POLYPEPTIDE COMPONENTS THEREOF, OR ANALOGUES OF SUCH PROTEINACEOUS OR POLYPEPTIDE COMPONENTS” (priority 1987, published 2001)
